The values below are quoted from earlier work in patent US20260020560A1, “AG[…] DIHYDROJASMONATE COMPOSITIONS” (priority 2022, published 2026).

Regarding `O=S(=O)(O)CCN1CCN(CCO)CC1` [HEPES, 4-(2-hydroxyethyl)-1-piperazineethanesulfonic acid], the “pKa at 25° C.” value was 7.48.

For the molecule `O=S(=O)(O)CC(O)CNC(CO)(CO)CO` (centres unmarked) [TAPSO, 3-[N-tris(hydroxymethyl)methyl-amino]-2-hydroxypropanesulfonic acid], the “pKa at 25° C.” value is given as 7.635.

What is called pKa is the pH at which an ionisable group is half protonated.
